# What was measured:
# [1] = tested on: hyperalgesia induced by chronic constriction of the sciatic nerve; test: hyperalgesia induced by chronic constriction of the sciatic nerve (rat paw pressure test); assay type: in vivo
# Experimental: For the induction of neuropathic pain, surgery was performed in the sciatic nerve, in accordance with the method described by Bennett, G. J and Xie, Y. K. (Pain, 33:87-107, 1988). The animals were anesthetized with halothane. The sciatic nerve was exposed in the middle region of the thigh, moving away the femoral biceps muscle. Close to the trifurcation of the sciatic nerve, 7 mm of distance from the trifurcation, 4 loose ligations were performed (chromed catgut 4-0) around it, distant from each other in approximately 1 mm. The bindings were performed along the nerve, up to 4-5 mm from the initial point. The incision was sutured in layers, using silk suture thread number 4-0.
# The test was applied before (BM-basal measurement) and on the 14th day after the surgery, to characterize the development of neuropathic pain.
# The results were analyzed by comparing the means of the basal and initial measurements or by comparing the means of the initial and final measurements or, when determined, through the comparison of the means obtained in the different experimental groups.
# (§1) For this purpose, the animals were treated with CTOP, a specific μ receptor antagonist (20 μg/paw), nor-BNI, a specific κ receptor antagonist (50 μg/paw) or with ICI 174,864, a specific δ receptor antagonist (10 μg/paw). The antagonists were injected, by intraplantar route. The peptide was administered in the dose of 5 μg/kg, orally, immediately before the injection of the opioid antagonists.
# The results were analyzed comparing the mean values of the basal and initial measurements, or of the initial and final measurements or, when determined, by comparing the mean values obtained in the different experimental groups (Tables 15 and 16).
# [2] = tested on: allodynia induced by the Walker 256 tumor; test: allodynia induced by the Walker 256 tumor (cancer pain); assay type: in vivo, rat
# Excerpt: The Walker 256 tumor cells were kindly provided by Prof. Dr. Rui Curi, of the Physiology and Biophysics Department of the Biomedical Science Institute of the University of São Paulo. The tumor-bearing animal was sacrificed and the tumoral tissue was removed, placed on a Petri dish containing 0.9% saline. Then, the tumor was cut in smaller parts, and transferred into a beaker containing saline. The material was triturated with a fine-cut, until the tumor is totally fragmented. Then, this material was filtered in gauze and the liquid collected in a beaker. All procedures were performed on ice. The material of the beaker was transferred to 50 ml plastic tubes and centrifuged at 4° C., for 10 minutes, at 1200 rpm. After centrifugation, the supernatant was rejected and the precipitate resuspended in saline 0.9%. For cell counts, the suspension of cells was diluted (1:100) in saline. An aliquot (200 μl) was removed and placed in a test tube containing 200 μl of 1% Trypan blue. The cell number was determined in optical microscope using Neubauer's chamber. The cellular viability was determined considering viable the light-refracting cells.
# After determining the number of cells, 1 ml of the suspension, containing 1×10^7 cells, was injected by intraperitoneal route, on the right side of the rats to obtain liquid tumor (ascites).
# Five days after injection, the rats with ascites were sacrificed and the ascetic fluid collected from the peritoneal cavity and placed in a test tube containing EDTA. The liquid was diluted 100 times with phosphate-buffered saline (PBS), pH 7.4. The cell count was done after dilution with Trypan blue, as described above. Tumor cell count was ascertained to 1×10^6 cells in 100 μl, by dilution with PBS. This number of cells was determined in preliminary tests for induction of cancer pain in rats. In this final cell number adjustment, the volume of antibiotic (Benzetacil®) added to the suspension (150,000 units of antibiotic/10 ml of suspension), was taken into consideration. The antibiotic was used in order to avoid microbial contamination. The cells were injected by intraplantar route into one of the rat hind paws. Control animals were injected with PBS into the contralateral paw, in the same experimental conditions.
# Hyperalgesia, allodynia and spontaneous pain were determined before (BM-basal measurement) and 5 days after tumor cell injection, before (IM-initial measurement) and 2 hours after (FM-Final measurement) peptide administration.
# The results were analyzed comparing the mean values of the basal and initial measurements, or of the initial and final measurements or, when determined, by comparing the mean values obtained in the different experimental groups (Tables 17, 18, 19).
# as §1, with “were injected” for “were injected,”, “of 6” for “of 5”, “antagonists. The results were analyzed comparing the mean values of the basal and initial measurements, or of the initial and final measurements or, when determined, by comparing the mean values obtained in the different experimental groups ( Table 20).” for “antagonists.”
# [3] = oral route, results 1 hour after treatment, reversal of hyperalgesia, CurveExpert 1.3
substance,measurement,setting,value
Xaa-Phe-Ser-Pro-Glu-Asn-Cys-Gln-Gly-Glu-Ser-Gln-Pro-Cys [SEQ ID NO: 2],"pain threshold, IM","[1]; 1 μg/kg p.o., day 14 after surgery, before peptide",31 ± 1.00 g
same,"pain threshold, FM 1 h","[1]; 5 μg/kg p.o. + CTOP 20 μg/paw i.pl., 1 h after peptide",105 ± 4.18 g
same,"pain threshold, MF 3 h","[1]; 5 μg/kg p.o. + CTOP 20 μg/paw i.pl., 3 h after peptide",112 ± 5.83 g
same,"pain threshold, BM","[1]; 5 μg/kg p.o. + CTOP 20 μg/paw i.pl., before surgery",72 ± 1.22 g
same,"pain threshold, IM","[1]; 5 μg/kg p.o. + CTOP 20 μg/paw i.pl., day 14, before peptide",41 ± 1.88 g
same,"pain threshold, FM 1 h","[1]; 5 μg/kg p.o. + ICI 174,864 10 μg/paw i.pl., 1 h after peptide",35 ± 1.87 g
same,"pain threshold, MF 3 h","[1]; 5 μg/kg p.o. + ICI 174,864 10 μg/paw i.pl., 3 h after peptide",37 ± 2.55 g
same,"pain threshold, BM","[1]; 5 μg/kg p.o. + ICI 174,864 10 μg/paw i.pl., before surgery",72 ± 1.22 g
same,"pain threshold, IM","[1]; 5 μg/kg p.o. + ICI 174,864 10 μg/paw i.pl., day 14, before peptide",34 ± 1.87 g
same,"pain threshold, FM 1 h","[1]; 5 μg/kg p.o. + nor-BNI 50 μg/paw i.pl., 1 h after peptide",69 ± 1.87 g
same,"pain threshold, MF 3 h","[1]; 5 μg/kg p.o. + nor-BNI 50 μg/paw i.pl., 3 h after peptide",75 ± 1.58 g
same,"pain threshold, BM","[1]; 5 μg/kg p.o. + nor-BNI 50 μg/paw i.pl., before surgery",73 ± 1.22 g
same,"pain threshold, IM","[1]; 5 μg/kg p.o. + nor-BNI 50 μg/paw i.pl., day 14, before peptide",35 ± 1.58 g
same,"pain threshold, BM","[1]; 5 μg/kg p.o., before surgery (Table 11)",72 ± 0.79 g
same,"pain threshold, BM","[1]; 5 μg/kg p.o., before surgery (Table 15)",72 ± 1.44 g
same,"pain threshold, FM 1 h","[1]; 5 μg/kg p.o., day 14, 1 h after peptide (Table 11)",100 ± 4.42 g
same,"pain threshold, FM 1 h","[1]; 5 μg/kg p.o., day 14, 1 h after peptide (Table 15)",114 ± 6.57 g
same,"pain threshold, FM 3 h","[1]; 5 μg/kg p.o., day 14, 3 h after peptide (Table 11)",98 ± 4.28 g
same,"pain threshold, MF 3 h","[1]; 5 μg/kg p.o., day 14, 3 h after peptide (Table 15)",121 ± 5.91 g
same,"pain threshold, FM 24 h","[1]; 5 μg/kg p.o., day 14, 24 h after peptide",99 ± 3.51 g
same,"pain threshold, FM 48 h","[1]; 5 μg/kg p.o., day 14, 48 h after peptide",93 ± 3.00 g
same,"pain threshold, FM 72 h","[1]; 5 μg/kg p.o., day 14, 72 h after peptide",86 ± 2.45 g
same,"pain threshold, FM 96 h","[1]; 5 μg/kg p.o., day 14, 96 h after peptide",33 ± 1.18 g
same,"pain threshold, IM","[1]; 5 μg/kg p.o., day 14, before peptide (Table 15)",35 ± 2.04 g
same,"pain threshold, IM","[1]; 5 μg/kg p.o., day 14 after surgery, before peptide (Table 11)",32 ± 0.79 g
same,duration of the anti-hyperalgesic effect,[1]; one single administration p.o.,up to 3 days
same,50% effective dose,[1]; [3],0.2055 µg/kg
same,60% effective dose,[1]; [3],0.2832 µg/kg
same,90% effective dose,[1]; [3],0.5747 µg/kg
same,effect of the mu opioid receptor antagonist on the anti-hyperalgesic effect of the peptide,"[1]; peptide 5 μg/kg p.o., CTOP 20 μg/paw i.pl.",did not alter
same,effect of the delta opioid receptor antagonist on the anti-hyperalgesic effect of the peptide,"[1]; peptide 5 μg/kg p.o., ICI 174,864 10 μg/paw i.pl.",blocked
same,effect of the kappa opioid receptor antagonist on the anti-hyperalgesic effect of the peptide,"[1]; peptide 5 μg/kg p.o., nor-BNI 50 μg/paw i.pl.",partially inhibited
same,"paw withdrawal threshold (allodynia), FM","[2]; 6 μg/kg p.o. + CTOP 20 μg/paw i.pl., 5th day, 2 hours after peptide",4.98 ± 0.03 log 10 (mg × 10)
same,"paw withdrawal threshold (allodynia), IM","[2]; 6 μg/kg p.o. + CTOP 20 μg/paw i.pl., 5th day, before peptide",4.41 ± 0.00 log 10 (mg × 10)
same,"paw withdrawal threshold (allodynia), BM","[2]; 6 μg/kg p.o. + CTOP 20 μg/paw i.pl., before injection of the tumor",5.03 ± 0.02 log 10 (mg × 10)
same,"paw withdrawal threshold (allodynia), FM","[2]; 6 μg/kg p.o. + ICI 174,864 10 μg/paw i.pl., 5th day, 2 hours after peptide",4.56 ± 0.03 log 10 (mg × 10)
same,"paw withdrawal threshold (allodynia), IM","[2]; 6 μg/kg p.o. + ICI 174,864 10 μg/paw i.pl., 5th day, before peptide",4.41 ± 0.00 log 10 (mg × 10)
same,"paw withdrawal threshold (allodynia), BM","[2]; 6 μg/kg p.o. + ICI 174,864 10 μg/paw i.pl., before injection of the tumor",4.99 ± 0.02 log 10 (mg × 10)
same,"paw withdrawal threshold (allodynia), FM","[2]; 6 μg/kg p.o. + nor-BNI 50 μg/paw i.pl., 5th day, 2 hours after peptide",4.41 ± 0.00 log 10 (mg × 10)
same,"paw withdrawal threshold (allodynia), IM","[2]; 6 μg/kg p.o. + nor-BNI 50 μg/paw i.pl., 5th day, before peptide",4.41 ± 0.00 log 10 (mg × 10)
same,"paw withdrawal threshold (allodynia), BM","[2]; 6 μg/kg p.o. + nor-BNI 50 μg/paw i.pl., before injection of the tumor",4.97 ± 0.00 log 10 (mg × 10)
same,"paw withdrawal threshold (allodynia), FM","[2]; 6 μg/kg p.o., 5th day after tumor implantation, 2 hours after peptide (Table 18)",4.97 ± 0.00 log 10 (mg × 10)
same,"paw withdrawal threshold (allodynia), IM","[2]; 6 μg/kg p.o., 5th day after tumor implantation, before peptide (Table 18)",4.41 ± 0.00 log 10 (mg × 10)
same,"paw withdrawal threshold (allodynia), FM","[2]; 6 μg/kg p.o., 5th day, 2 hours after peptide (Table 21)",4.97 ± 0.00 log 10 (mg × 10)
same,"paw withdrawal threshold (allodynia), IM","[2]; 6 μg/kg p.o., 5th day, before peptide (Table 21)",4.41 ± 0.00 log 10 (mg × 10)
same,"paw withdrawal threshold (allodynia), BM","[2]; 6 μg/kg p.o., before injection of the tumor (Table 18)",4.97 ± 0.00 log 10 (mg × 10)
same,"paw withdrawal threshold (allodynia), BM","[2]; 6 μg/kg p.o., before injection of the tumor (Table 21)",4.97 ± 0.00 log 10 (mg × 10)
same,effect of the mu opioid receptor antagonist on the anti-allodynic effect of the peptide,"[2]; peptide 6 μg/kg p.o., CTOP 20 μg/paw i.pl.",did not alter
same,effect of the delta opioid receptor antagonist on the anti-allodynic effect of the peptide,"[2]; peptide 6 μg/kg p.o., ICI 174,864 10 μg/paw i.pl.",partially inhibited
same,effect of the kappa opioid receptor antagonist on the anti-allodynic effect of the peptide,"[2]; peptide 6 μg/kg p.o., nor-BNI 50 μg/paw i.pl.",blocked

# — patent US9109041B2, “Analog compounds of analgesic peptides derived from the venom of crotalus durissus terrificus snakes, their uses, compositions, methods of preparation and purification” (priority 2004, dated 2015)
